# Results as given in article PMC7618597, “Dual Nurr1/RXR agonism of valerenic acid and synthetic mimetics enables dimer-selective Nurr1 modulation” (ACS medicinal chemistry letters, 2025).
# Legend:
# Format in all cases: cell-based
# [1] = target: T1, RXRα (Homo sapiens, UniProt P19793); assay: Gal4-hybrid reporter gene assay, RXRα; conditions: Gal4-hybrid reporter gene assay; for EC50: mean±S.E.M., n≥3
# T1 construct: pFA-CMV-hRXRα-LBD; expressed in transfected cells; host or cells: HEK293T
# T1 sequence (P19793 227-458 limits assumed): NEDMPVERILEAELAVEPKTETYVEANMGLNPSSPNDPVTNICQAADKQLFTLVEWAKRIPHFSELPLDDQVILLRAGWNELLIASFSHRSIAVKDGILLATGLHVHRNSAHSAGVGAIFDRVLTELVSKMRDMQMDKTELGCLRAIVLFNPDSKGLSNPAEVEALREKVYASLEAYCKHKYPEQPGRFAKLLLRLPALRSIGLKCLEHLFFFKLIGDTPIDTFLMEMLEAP
# Protocol: (§1) modified Eagle’s medium (DMEM), high glucose supplemented with 10% fetal calf serum (FCS), sodium pyruvate (1 mM), penicillin (100 U/mL), and streptomycin (100 μg/mL) at 37 °C and 5% CO2 and seeded in 96-well plates (3×10^4 cells/well). After 24 h, the medium was changed to Opti-MEM without supplements, and the cells were transiently transfected using Lipofectamine LTX reagent (Invitrogen) according to the manufacturer’s protocol. Five hours after transfection, the cells were incubated with the test compounds in Opti-MEM supplemented with penicillin (100 U/mL), streptomycin (100 μg/mL), and 0.1% DMSO for 15 h before luciferase activity was measured using the Dual -Glo Luciferase Assay System (Promega) according to the manufacturer’s protocol on a Tecan Spark l uminometer (Tecan Deutschland GmbH, Germany). Firefly luminescence was divided by Renilla luminescence and multiplied by 1000, resulting in relative light units (RLU) to normalize for transfection efficiency and cell growth. Fold activation was obtained by dividing the mean RLU of a sample by the mean RLU of the untreated control. All samples were tested in at least three biologically independent experiments in duplicates. For dose –response curve fitting and calculation of EC50 values, the equation “[Agonist] vs. response – Variable slope (four parameters)” was used in GraphPad Prism (version 5.04, GraphPad Software, La Jolla, CA, USA). […] (10 μM, NR4A) and bexarotene (1 µM, NR2B) served as the positive control. […]
# (§2) 150 μM in the same buffer containing 2-4% DMSO) in 21–26 injections (1 × 1 μL and 20 × 4 to 25 × 4 μL) with an injection interval of 120 s. As control experiments, the test compounds were titrated to the buffer, and the buffer was titrated to the protein under otherwise identical conditions. The heat rates of the compound-Nurr1 LBD titrations were analyzed using NanoAnalyze software (TA Instruments, New Castle, DE) with an independent binding model.
# [2] = target: T2, RXRβ (Homo sapiens, UniProt P28702); assay: Gal4-hybrid reporter gene assay, RXRβ; conditions: Gal4-hybrid reporter gene assay; for EC50: mean±S.E.M., n≥3
# T2 construct: CMV-hRXRβ-LBD; expressed in transfected cells; host or cells: HEK293T
# T2 sequence (P28702 296-529 limits assumed): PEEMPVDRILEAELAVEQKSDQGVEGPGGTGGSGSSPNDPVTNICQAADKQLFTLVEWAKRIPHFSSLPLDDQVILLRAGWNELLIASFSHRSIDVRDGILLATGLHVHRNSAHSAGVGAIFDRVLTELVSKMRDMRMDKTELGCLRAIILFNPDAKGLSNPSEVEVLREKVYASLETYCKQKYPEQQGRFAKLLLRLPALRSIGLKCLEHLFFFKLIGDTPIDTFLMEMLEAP
# Protocol: as §1, §2
# [3] = system: HEK293T cells; assay: Multiplex toxicity assay; conditions: for toxicity at the test concentrations of the gene expression study: 2 (10 μM), 3 (1 μM), multiplex toxicity assay; for concentration at which toxic effects start: HEK293T cells, confluence, metabolic activity, pyknosis, necrosis, n=4
# Protocol: page 9: and 20 s of elongation at 68 °C. PCR product specificity was evaluated using a melting curve analysis ranging from 65 to 95 °C. Nurr1 target gene expression was normalized to rGAPDH mRNA expression per sample using the ΔCt-method. The following primers and annealing temperatures were used: rGAPDH (59.4 °[…]); rTH (59.4 °C): 5'-[…]); rFLRT2 (59.0 °C): 5'-[NT]); rSESN3 (62.4 °C): […]); rCRMP4 (58.0 °C): […]); rBDNF (58.0 °C): 5'-[NT]); rBIRC5 (59.4 °C): 5'-[…]); rCCND2 (59.0 °C): [NT]); rXIAP (61.1 °C): […]); rSOD2 (59.4 °C): [NT]). Multiplex toxicity assay. HEK293T cells were grown in DMEM high glucose, supplemented with 10% FCS, sodium pyruvate (1 mM), penicillin (100 U/mL), and streptomycin (100 μg/mL) at 37 °C and 5% CO2. The day before experiment, cells were seeded in 96-well plates (2 × 10^4 cells per well) in culture medium with reduced serum content (0.2%). The next day, medium was changed, maintaining the low serum content and additionally containing 0.1% DMSO with 2 (1 or 10 μM) or 3 ([…]), 0.1% DMSO with bexarotene (100 μM) or flavopiridol (100 μM) as positive controls, or 0.1% DMSO alone as untreated control. Each sample was prepared in 4 biologically independent replicates. After incubation for 24 h, the medium was changed to 90 μL culture medium without phenol red (0.2% FCS) and 10 μL Cell Counting Kit- 8 solution (CCK-8, MedChem Express #HY-[…]), and absorbance was measured after 2 h incubation at 450 nm on a Tecan Spark Cyto (Tecan Group AG) to assess metabolic activity of the cells. Thereafter, Hoechst33342 (10 μM, #ab228551, Abcam Limited, Cambridge, UK) and Live-or-Dye Nuc-Fix Red (0.05×, Biotium, Inc., Fremont, CA, 1691 USA) were added and incubated for 30 min to detect pyknosis and cellular necrosis, respectively. After incubation, a total of 3 fluorescence images per well at 10× magnification was taken to detect Hoechst33342-positive cell nuclei (Ex: 381-400 nm, Em: 414-450 nm) and Live-or- Dyepositive cells (Ex: 543-566 nm, Em: 580-611 nm), respectively, using a Tecan Spark Cyto (Tecan Group AG). Necrotic cells were counte d using CellProfiler (Version 4.2.6). Reference readings for background correction and detection of autofluorescence were taken at the same wavelengths prior to staining. Before drug administration, after the first medium exchange, 24 h after drug administration, and after fluorescence imaging cell confluence was assessed using the Tecan Spark Cyto, to account for changes in cell confluence due to drug administration and cell handling. Pyknosis was defined via a cutoff range describing the significant shift of Hoechst33342-positive signal per nuclear area in bexarotene vs. vehicle treated cells. The mean intensity/area values for each well were further normalized to the […] increment of pyknosis. […]
Compound,max. act. (RXR) α [1],EC50 [1],max. act. (RXR) β [2],EC50 [2],toxicity at the test concentrations of the gene expression study [3],concentration at which toxic effects start [3]
Cc1c2c(n(-c3ccc(CC(=O)O)cc3)c1C)CCC(F)(F)C2 [compound 2],69±1 fold,970 nM,121±6 fold,4500 nM,non-toxic,> 30 µM
Cc1c(C)n(-c2ccc(CC(=O)O)cc2)c2ccc(F)cc12 [compound 3],83±9 fold,400 nM,103±6 fold,600 nM,non-toxic,10 µM
